Laboratory results from US20090149512A1, “Use of Ghrelin Antagonists to the Treatment of Certain CNS Diseases” (Novo Nordisk A/S, priority 2004, published 2009).

Test system: diabetic ob/ob mice
Assay: Assessment of level of wakefulness/activity (locomotor activity, light-beam interruption method)
Type: in vivo
Details: 20 mg/kg i.p. in saline once daily for 14 days, male, 8 months old
Method: The effect of an administered substance (for example a ghrelin antagonist) on the level of wakefulness or activity in animal subjects (for example, mice) may be assessed by means of an activity test in which the primary measurement parameter is locomotor activity.
Baseline activity is determined for all the animals 1-2 days prior to administration of saline (placebo) or ghrelin antagonist. The animals are subsequently monitored, either acutely or at the end of a more sub-chronic or chronic treatment lasting several days or weeks, for behavioural sensitization. On testing days, the animals are allowed to acclimatize to the behavioural monitors for 30 minutes prior to data accumulation if the monitors in question are different from their “home” cages. Activity is recorded for at least 1 hour on each of the testing days (baseline and post-treatment test). In a suitable arrangement, transparent chambers of Plexiglas™ are equipped with aluminium frames on which are mounted infrared light emitters and detectors. The detectors are interfaced to a personal computer (PC). Behavioural or psychomotor activity is defined as the total number of light-beam interruptions recorded during each testing session. […]

CNC(=O)c1noc(C(Cc2ccccc2)N(C)C(=O)[C@@H](Cc2ccc3ccccc3c2)NC(=O)/C=C/C(C)(C)N)n1 (single isomer, unassigned) [D2]
behaviour of treated animals when observed: awake and interested in their environment | level of wakefulness/activity (locomotor activity) assessed using the light-beam interruption method (versus saline control): became surprisingly active and awake for the duration of the study
